Measured values: patent CN108947977A, “3r-吲哚甲基-6r-酰胺侧链氨基酸修饰的哌嗪-2,5-二酮，其合成，活性和应用” (Capital Medical University, priority 2017, dated 2018)

Tests used:
S180 = assay: Anti-tumour growth activity in S180 tumour-bearing mice (tumour weight); format: in vivo, ICR小鼠; settings: oral, 0.5μmol/kg/天; for Inhibition of tumour growth (result in words): 12 days, S180 mice; for Anti-tumour growth activity compared with compound 8 (5μmol/kg/天): compound 8 dose 10-fold higher
二甲苯引起的小鼠耳肿胀 = assay: Anti-inflammatory activity: xylene-induced mouse ear swelling; format: in vivo, ICR小鼠; settings: oral, 0.5μmol/kg; for Inhibition of xylene-induced mouse ear swelling (result in words): xylene 30 min after dosing, ears taken 2 h later; for Anti-inflammatory activity compared with compound 8 (5μmol/kg): compound 8 dose 10-fold higher
Lewis小鼠肺癌细胞(LLC) = assay: Anti-metastasis activity: Lewis lung carcinoma (LLC) implanted in C57BL/6 mice, lung metastasis nodules counted; format: in vivo, C57BL/6小鼠; settings: oral, 0.5μmol/kg/天; for Inhibition of tumour lung metastasis (result in words): 12 days, LLC-bearing C57BL/6 mice; for Anti-metastasis activity compared with RGDS (20μmol/kg/天) and compound 8 (5μmol/kg/天): RGDS dose 40-fold higher, compound 8 dose 10-fold higher

Q: Which results are given for `NC(=O)C[C@H](N)C(=O)NCCCCCC(=O)NCCCC[C@H]1NC(=O)[C@@H](Cc2c[nH]c3ccccc23)NC1=O` [化合物6b, (3R,6R)-3-(Asn-氨基正己酰基氨基正丁基)-6-(吲哚-3-甲基)-哌嗪-2,5-二酮]?
A: Inhibition of tumour growth (result in words) (S180): 有效地抑制肿瘤生长; Anti-tumour growth activity compared with compound 8 (5μmol/kg/天) (S180): 没有显著性差异; Inhibition of xylene-induced mouse ear swelling (result in words) (二甲苯引起的小鼠耳肿胀): 有效地抑制二甲苯引起的小鼠耳肿胀; Anti-inflammatory activity compared with compound 8 (5μmol/kg) (二甲苯引起的小鼠耳肿胀): 没有显著性差异; Inhibition of tumour lung metastasis (result in words) (Lewis小鼠肺癌细胞(LLC)): 有效地抑制肿瘤肺转移; Anti-metastasis activity compared with RGDS (20μmol/kg/天) and compound 8 (5μmol/kg/天) (Lewis小鼠肺癌细胞(LLC)): 没有显著性差异

Q: `NC(=O)CC[C@H](N)C(=O)NCCCCCC(=O)NCCCC[C@H]1NC(=O)[C@@H](Cc2c[nH]c3ccccc23)NC1=O` [化合物6a, (3R,6R)-3-(Gln-氨基正己酰基氨基正丁基)-6-(吲哚-3-甲基)-哌嗪-2,5-二酮] was tested. Which “Inhibition of tumour growth (result in words)” value (S180) did it give?
A: Its value is “有效地抑制肿瘤生长”.

Q: And the “Anti-tumour growth activity compared with compound 8 (5μmol/kg/天)” value (S180)?
A: Its value is “没有显著性差异”.

Q: And the “Inhibition of xylene-induced mouse ear swelling (result in words)” value (二甲苯引起的小鼠耳肿胀)?
A: Its value is “有效地抑制二甲苯引起的小鼠耳肿胀”.

Q: And the “Anti-inflammatory activity compared with compound 8 (5μmol/kg)” value (二甲苯引起的小鼠耳肿胀)?
A: The value was “没有显著性差异”.

Q: And the “Inhibition of tumour lung metastasis (result in words)” value (Lewis小鼠肺癌细胞(LLC))?
A: The value was “有效地抑制肿瘤肺转移”.

Q: And the “Anti-metastasis activity compared with RGDS (20μmol/kg/天) and compound 8 (5μmol/kg/天)” value (Lewis小鼠肺癌细胞(LLC))?
A: The value was “没有显著性差异”.
